Entries after “also recorded” stand apart in the source; their conditions may differ.

Assay [1] concerns the target T1, aryl hydrocarbon receptor (AhR) (Homo sapiens, UniProt P35869).
T1 sequence (P35869 11-848): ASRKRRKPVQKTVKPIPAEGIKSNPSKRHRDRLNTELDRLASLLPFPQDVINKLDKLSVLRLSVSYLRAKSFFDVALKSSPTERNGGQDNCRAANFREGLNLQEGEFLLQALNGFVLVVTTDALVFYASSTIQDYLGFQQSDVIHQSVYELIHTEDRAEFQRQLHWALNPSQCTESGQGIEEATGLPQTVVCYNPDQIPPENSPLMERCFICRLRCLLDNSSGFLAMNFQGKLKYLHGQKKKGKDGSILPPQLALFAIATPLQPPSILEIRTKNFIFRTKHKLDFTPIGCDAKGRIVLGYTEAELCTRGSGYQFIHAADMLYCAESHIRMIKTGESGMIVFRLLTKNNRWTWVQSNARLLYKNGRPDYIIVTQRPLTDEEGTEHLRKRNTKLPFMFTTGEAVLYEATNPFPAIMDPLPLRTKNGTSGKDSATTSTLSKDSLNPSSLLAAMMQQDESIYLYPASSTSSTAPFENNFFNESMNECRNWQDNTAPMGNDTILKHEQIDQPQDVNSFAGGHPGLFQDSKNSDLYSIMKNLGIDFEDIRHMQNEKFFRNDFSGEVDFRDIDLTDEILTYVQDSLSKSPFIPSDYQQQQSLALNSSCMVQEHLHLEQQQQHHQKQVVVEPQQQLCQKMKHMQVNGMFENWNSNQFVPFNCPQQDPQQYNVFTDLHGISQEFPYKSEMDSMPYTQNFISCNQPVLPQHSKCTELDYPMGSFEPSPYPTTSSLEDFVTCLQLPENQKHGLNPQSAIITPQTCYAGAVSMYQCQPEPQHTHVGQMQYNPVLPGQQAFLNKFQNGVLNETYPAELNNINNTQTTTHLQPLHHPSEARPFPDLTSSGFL
The note with it: cited from earlier work.

In the next assay the test system is MMP-1. The conditions noted are these: dermal fibroblasts; cited from earlier work.
Another assay relates to collagen 1. The conditions noted are these: dermal fibroblasts; cited from earlier work.
Assay [2] has as its system rabbit ear hypertrophic scarring model. The conditions noted are these: topical application to skin tissue; cited from earlier work.
The test system of assay [3] is UVB-induced wrinkle formation. The note with it: animal model (Kim, 2022); cited from earlier work.
Another assay relates to MMP-3. The note with it: dermal fibroblasts; cited from earlier work.
In assay [4] the test system is rhytids and wrinkles on the face. The assay can be described thus: Topical use of 0.5% kynurenic acid cream on facial rhytids and wrinkles (self-reported, visual inspection). It is filed as in vivo, human. The note with it: person, approx. 3 mg per application.
Excerpt: (§1) Initial dermatological effects can be followed by visual inspection of the site.
as §1

In another assay the test system is fibronectin. The conditions noted are these: dermal fibroblasts; cited from earlier work.

In the case of `Nc1ccccc1C(=O)CC(N)C(=O)O` (racemic) [kynurenine], the “AhR agonist / antagonist activity” value in assay [1] is “AhR agonists”. Moreover, in the assay with MMP-1, the MMP-1 expression result is on record as “increase MMP production”. The “collagen 1 expression” value in the assay on collagen 1 was “suppress collagen production”. Besides, in assay [2], the “MMP-1 relative to controls” value is recorded as “increased” and the “collagen relative to controls” value is on record as “decreased”.
Turning to `Nc1nc2ncc(CNc3ccc(C(=O)N[C@@H](CCC(=O)O)C(=O)O)cc3)nc2c(=O)[nH]1` [folic acid], in assay [1], the “AhR agonist / antagonist activity” value was “AhR antagonists”. In addition, the UVB-induced wrinkle formation result in assay [3] was “helped reduce; also recorded: ameliorated”.
As for `O=C(O)c1cc(=O)c2ccccc2[nH]1` [kynurenic acid], the MMP-3 expression entry with MMP-3 is on record as “increase expression; also recorded: upregulate”. For the same compound, in assay [4] (topical cream 0.5% kynurenic acid by weight once a day, approx. 80 micrograms per square cm, after a 2-month period), the “visibility of rhytids and wrinkles (user-reported)” value is “less visible and less noticeable”. For the same compound, in assay [4] (topical cream 0.5% kynurenic acid by weight twice daily, approx. 60 micrograms per square cm, approx. two-month period), the “appearance and visibility of rhytids and wrinkles (subject-reported)” value is “perceptible and noticeable reduction”. In the assay with MMP-1, the MMP-1 expression result is listed as “increase expression; also recorded: increase MMP production; also recorded: upregulate”. For the same compound, in the assay with collagen 1, the “collagen 1 expression” value was “downregulate; also recorded: suppress collagen production”. For the same compound, in the assay with fibronectin, the fibronectin expression entry is recorded as “downregulate”.
Regarding vitamin B12, the “AhR agonist / antagonist activity” value in assay [1] was “AhR antagonists”. In addition, the UVB-induced wrinkle formation entry in assay [3] is reported as “helped reduce; also recorded: ameliorated”.

The values above are taken from patent US20250255792A1, “Methods of Using a Small Molecule Chemical Compound to Reduce the Appearance of Rhytids and Wrinkles” (BirchBioMed Inc., priority 2022, published 2025).
